Data published in article PMC5784158, “New 2-Aryl-9-methyl-β-carbolinium salts as Potential Acetylcholinesterase Inhibitor agents: Synthesis, Bioactivity and Structure–Activity Relationship” (Scientific Reports, 2018).
Read-outs that look alike come from different tables or passages of the source.

Tests used:
[1] = target: AChE (Musca domestica, UniProt Q7YWJ9); experiment: biochemical; format: biochemical, fly; conditions: for Inhibition rate (%): test concentration of the compound 10 μM
Description: AChE (E.C. 3.1.1.7) (BR, 200 u/mg) from fly’s head and BuChE (E.C. 3.1.1.8) (BR, 20 u/mg) from horse serum were purchased from Shanghai Yuanye biological technology Co. Ltd (Shanghai, China).
(§1) The inhibitory activities of the compounds against AChE were evaluated according to Ellman’s coupled enzyme assay[47] with the following modifications. 90 μL potassium phosphate buffer (PBS, 0.1 M, pH 7.4), 10 μL the solution of 2 units/mL AChE in 0.1 M PBS (pH 7.4) and 10 μL the solution of 200 μM test compounds in the mixed solution of methanol-PBS (pH 7.4) (1:9, V/V) were added to each well of a 96-well plate. The methanol-PBS solution was used as a blank control. After incubation at room temperature for 10 min, 60 μL the solution of 10 mM DTNB in PBS was added into each the well. The plate was placed on crushed ices and cooled for 20 min. To each the well was added 30 μL the solution of 7.5 mM ATCh in PBS (pH 7.4). […] Each test was performed in triplicate. Inhibition rates of the enzyme were calculated relative to a control sample. The inhibitory activities against BuChE were measured as described above for AChE, using 0.7 unit/mL BuChE and 4 mM BuTCh instead of AChE and ATCh as the enzyme and substrate, respectively.
(§2) The probit value of the average inhibition rate for each test concentration and the corresponding lg[concentration] were used to establish enzyme inhibition regression equation by the linear least-square fitting method. IC50 values were calculated from the equations.

[2] = target: T1, BuChE (Equus caballus, UniProt P81908); experiment: BuChE inhibition, Ellman's method; format: biochemical, horse; conditions: read-out: IC50 ± S.D BuChE
T1 construct: BuChE (E.C. 3.1.1.8) (BR, 20 u/mg) from horse serum; purchased Shanghai Yuanye biological technology Co. Ltd (Shanghai, China); host or cells: horse serum (tissue-derived)
T1 sequence (P81908 whole entry): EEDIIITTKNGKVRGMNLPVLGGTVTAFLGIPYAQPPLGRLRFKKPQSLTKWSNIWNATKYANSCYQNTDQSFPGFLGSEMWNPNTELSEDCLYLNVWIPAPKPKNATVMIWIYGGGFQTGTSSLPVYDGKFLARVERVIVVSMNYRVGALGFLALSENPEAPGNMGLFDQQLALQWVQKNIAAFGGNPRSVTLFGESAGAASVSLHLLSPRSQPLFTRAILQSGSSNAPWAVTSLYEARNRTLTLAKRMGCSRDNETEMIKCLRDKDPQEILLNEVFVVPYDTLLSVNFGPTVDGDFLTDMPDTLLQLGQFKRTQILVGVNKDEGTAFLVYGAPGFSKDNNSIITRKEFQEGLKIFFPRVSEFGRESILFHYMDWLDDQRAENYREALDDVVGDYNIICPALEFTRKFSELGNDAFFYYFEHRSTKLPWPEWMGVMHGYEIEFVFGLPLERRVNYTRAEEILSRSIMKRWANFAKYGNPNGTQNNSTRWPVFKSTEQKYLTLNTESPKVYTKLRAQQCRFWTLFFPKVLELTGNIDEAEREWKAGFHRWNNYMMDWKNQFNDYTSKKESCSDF
Text: There is increasing recognition that BuChE may play an important role in cholinergic transmission[15],[16]. While the level of AChE decreases dramatically in the advanced stage of AD, BuChE increases in brain regions involved in cognitive functions[17],[18]. At this point, BuChE is able to compensate for AChE loss by hydrolyzing ACh. These observations lead one to believe that inhibition of both AChE and BuChE may contribute to improvement of current symptomatic treatments of AD. Therefore, the compounds in Table 2 were also evaluated for BuChE inhibition activity by means of Ellman’s method. […] AChE (E.C. 3.1.1.7) (BR, 200 u/mg) from fly’s head and BuChE (E.C. 3.1.1.8) (BR, 20 u/mg) from horse serum were purchased from Shanghai Yuanye biological technology Co. Ltd (Shanghai, China).
as §1, §2

[3] = Estimated values based on the results in Table 1 (inhibition rate at 10 μM), read-out: IC50 AChE, estimated values

Chain of AChE (Q7YWJ9 81-659): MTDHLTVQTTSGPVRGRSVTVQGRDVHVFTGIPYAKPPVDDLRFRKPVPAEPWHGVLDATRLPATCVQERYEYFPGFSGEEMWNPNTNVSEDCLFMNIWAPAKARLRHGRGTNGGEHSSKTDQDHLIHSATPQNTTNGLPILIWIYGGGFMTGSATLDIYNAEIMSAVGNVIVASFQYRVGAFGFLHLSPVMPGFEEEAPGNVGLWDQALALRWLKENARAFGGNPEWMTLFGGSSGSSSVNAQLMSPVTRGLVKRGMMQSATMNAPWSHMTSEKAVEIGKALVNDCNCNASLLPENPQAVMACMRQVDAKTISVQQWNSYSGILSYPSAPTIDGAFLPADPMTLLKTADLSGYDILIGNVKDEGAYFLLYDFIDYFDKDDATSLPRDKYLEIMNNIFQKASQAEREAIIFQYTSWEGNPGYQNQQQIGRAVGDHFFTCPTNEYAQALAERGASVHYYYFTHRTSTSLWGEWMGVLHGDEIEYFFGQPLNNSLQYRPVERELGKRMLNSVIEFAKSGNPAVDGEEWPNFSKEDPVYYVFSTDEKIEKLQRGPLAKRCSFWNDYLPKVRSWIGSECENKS

Row | SMILES | SI: selectivity index, ratio IC50 (BuChE)/IC50 (AChE) [1] | IC50 ([1]; read-out: IC50 ± S.D AChE) | Inhibition rate (%) [1] | IC50 [2] | IC50 [1, 3]
1 | Cn1c2ccccc2c2cc[n+](-c3ccc(C(F)(F)F)cc3)cc21.[Br-] [Compound B27, 9-Methyl-2-(4-trifluoromethylphenyl)-β-carboline bromide] | 111.3 | 0.7 ± 0.11 µM | 91.4 ± 0.3 bcde % | 77.9 ± 4.97 µM | 
2 | Cn1c2ccccc2c2cc[n+](-c3ccc(Cl)cc3Cl)cc21.[Br-] [Compound B30, 9-Methyl-2-(2,4-dichlorophenyl)-β-carboline bromide] | 241.1 | 0.55 ± 0.07 µM | 90.6 ± 1.0 def % | 133 ± 26.3 µM | 
3 | Cn1c2c(c3ccccc31)CC[N+](c1ccc(Br)cc1)=C2.[Br-] [Compound A10] | 11.2 | 6.79 ± 2.29 µM | 60.3 ± 1.6 d % | 76.2 ± 11 µM | 
4 | C1=[N+](c2ccccc2)CCc2c1[nH]c1ccccc21.[Br-] [Compound A46] |  | 18.2 ± 1.97 µM | 41.3 ± 1.4 ij % | 3.9 ± 0.53 µM | 
5 | C=CCn1c2c(c3ccccc31)CC[N+](c1ccccc1)=C2.[Br-] [Compound A41] | 1.75 | 3.91 ± 0.36 µM | 74.4 ± 1.1 ab % | 6.83 ± 0.2 µM | 
6 | COc1cccc(-[n+]2ccc3c4ccccc4n(C)c3c2)c1.[Br-] [Compound B18, 9-Methyl-2-(3-methoxylphenyl)-β-carboline bromide] | 6.42 | 9.69 ± 0.8 µM | 53.5 ± 0.4 op % | 62.2 ± 3.62 µM | 
7 | Cn1c2ccccc2c2cc[n+](-c3ccc(I)cc3)cc21.[Br-] [Compound B13, 9-Methyl-2-(4-iodohenyl)-β-carboline bromide] | 168.3 |  | 93.8 ± 0.4 abcd % | 40.4 ± 1.83 µM | 
8 | Cn1c2ccccc2c2cc[n+](-c3ccc(Br)cc3F)cc21.[Br-] [Compound B32, 9-Methyl-2-(2-fluoro-4-bromophenyl)-β-carboline bromide] | 385.0 |  | 92.8 ± 1.0 abc % | 116 ± 18.2 µM | 
9 | Cc1cccc(-[n+]2ccc3c4ccccc4n(C)c3c2)c1.[Br-] [Compound B21, 9-Methyl-2-(3-methylphenyl)-β-carboline bromide] | 13.6 | 5.05 ± 0.26 µM | 72.4 ± 3.9 l % | 68.6 ± 8.06 µM | 
10 | CCn1c2c(c3ccccc31)CC[N+](c1ccccc1)=C2.[Br-] [Compound A38] | 2.82 | 3.69 ± 0.4 µM | 76.6 ± 3.7 a % | 10.4 ± 0.4 µM | 
11 | COc1ccc(-[n+]2ccc3c4ccccc4n(C)c3c2)cc1.[Br-] [Compound B19, 9-Methyl-2-(4-methoxylphenyl)-β-carboline bromide] | 72.3 | 0.47 ± 0.04 µM | 90.7 ± 0.8 def % | 34 ± 2 µM | 
12 | Cn1c2ccccc2c2cc[n+](-c3ccc(Cl)cc3)cc21.[Br-] [Compound B7, 9-Methyl-2-(4-chlorophenyl)-β-carboline bromide] | 107.1 | 0.56 ± 0.07 µM | 91.2 ± 1.5 cde % | 60 ± 1.52 µM | 
13 | Cn1c2ccccc2c2cc[n+](-c3ccc(O)cc3)cc21.[Br-] [Compound B16, 9-Methyl-2-(4-hydroxyhenyl)-β-carboline bromide] | 45.3 | 1.5 ± 0.19 µM | 82.1 ± 2.5 ij % | 67.9 ± 11.5 µM | 
14 | Cn1c2ccccc2c2cc[n+](-c3cccc(C#N)c3)cc21.[Br-] [Compound B24, 9-Methyl-2-(3-cyanophenyl)-β-carboline bromide] | 20.6 | 10.3 ± 0.6 µM | 50.7 ± 2.2 pq % | 212 ± 17.4 µM | 
15 | Cn1c2ccccc2c2cc[n+](-c3ccc(Br)cc3)cc21.[Br-] [Compound B10, 9-Methyl-2-(4-bromophenyl)-β-carboline bromide] | 128.8 | 0.43 ± 0.04 µM | 95.4 ± 0.8 ab % | 55.4 ± 1.73 µM | 
16 | Cn1c2c(c3ccccc31)CC[N+](c1ccccc1)=C2.[Br-] [Compound A1] | 0.54 | 18.6 ± 2.93 µM | 40.9 ± 2.1 ij % | 10.1 ± 1.66 µM | 
17 | Cn1c2ccccc2c2cc[n+](-c3ccccc3C#N)cc21.[Br-] [Compound B23, 9-Methyl-2-(2-cyanophenyl)-β-carboline bromide] | 44.4 | 4.41 ± 0.29 µM | 68.7 ± 0.7 lm % | 196 ± 13.4 µM | 
18 | Cn1c2ccccc2c2cc[n+](-c3cccc(F)c3)cc21.[Br-] [Compound B3, 9-Methyl-2-(3-fluorophenyl)-β-carboline bromide] | 15.3 | 4.73 ± 0.33 µM | 70.5 ± 2.2 l % | 72.4 ± 4.25 µM | 
19 | Cn1c2ccccc2c2cc[n+](-c3ccccc3F)cc21.[Br-] [Compound B2, 9-Methyl-2-(2-fluorophenyl)-β-carboline bromide] | 3.49 | 6.65 ± 1.07 µM | 59.8 ± 3.2 n % | 23 ± 0.53 µM | 
20 | Cn1c2c(c3ccc(Cl)cc31)CC[N+](c1ccccc1)=C2.[Br-] [Compound A37] | 2.91 | 4.02 ± 0.95 µM | 66.6 ± 4.7 c % | 11.7 ± 0.5 µM | 
21 | Cn1c2c(c3ccccc31)CC[N+](c1ccc(Cl)cc1)=C2.[Br-] [Compound A7] | 5.57 | 7.58 ± 1.29 µM | 60.1 ± 2.9 d % | 42.2 ± 0.86 µM | 
22 | CCCn1c2ccccc2c2cc[n+](-c3ccccc3)cc21.[Br-] [Compound B39, 9-Propyl-2-phenyl-β-carboline bromide] |  | 3.08 ± 0.66 µM | 78.8 ± 0.9 jk % |  | 
23 | CCn1c2ccccc2c2cc[n+](-c3ccccc3)cc21.[Br-] [Compound B38, 9-Ethyl-2-phenyl-β-carboline bromide] |  | 0.76 ± 0.21 µM | 87.8 ± 1.1 efgh % |  | 
24 | Cc1ccc2c(c1)c1cc[n+](-c3ccccc3)cc1n2C.[Br-] [Compound B35, 6,9-Dimethyl-2-phenyl-β-carboline bromide] |  | 0.42 ± 0.15 µM | 88.6 ± 2.5 efg % |  | 
25 | Cn1c2c(c3ccccc31)CC[N+](c1ccccc1C#N)=C2.[Br-] [Compound A23] |  |  | 10.1 ± 1.6 pqr % |  | > 10 µM
26 | COc1ccc2c(c1)c1cc[n+](-c3ccccc3)cc1n2C.[Br-] [Compound B34, 6-Methoxy-9-methyl-2-phenyl-β-carboline bromide] |  | 0.94 ± 0.23 µM | 85.7 ± 2.5 ghi % |  | 
27 | Cn1c2c(c3ccccc31)CC[N+](c1cccc(Br)c1)=C2.[Br-] [Compound A9] |  |  | 16.2 ± 3.3 mno % |  | > 10 µM
28 | Cn1c2ccccc2c2cc[n+](-c3cccc([N+](=O)[O-])c3)cc21.[Br-] [Compound B28, 9-Methyl-2-(3-nitrophenyl)-β-carboline bromide] |  |  | 34.9 ± 1.8 tu % |  | > 10 µM
